Test system: MDA-MB-231 Luc2-TdTomato cells
Assay: Spontaneous human breast cancer metastasis to human bone implants in NOD SCID mice
Assay type: in vivo
Protocol: To model human breast cancer metastasis to human bone implants two human bone discs were implanted subcutaneously into 10-week old female NOD SCID mice (n=10/group) under isofluorane anaesthetic. Mice received an injection of 0.003 mg vetergesic and Septrin was added to the drinking water for 1 week following bone implantation. Mice were left for 4 weeks before injecting 1×10^5 MDA-MB-231 Luc2-TdTomato, MCF7 Luc2 or T47D Luc2 cells in 20% Martigel/79% PBS/1% […] into the two hind mammary fat pads. Primary tumor growth and development of metastases was monitored weekly using an IVIS […] system (Caliper Life Sciences) following sub-cutaneous injection of 30 mg/ml D-luciferin (Invitrogen). On termination of experiments mammary tumors, circulating tumor cells, serum and bone metastases were resected. RNA was processed for downstream analysis by real time PCR, and cell lysates were taken for protein analysis and whole tissue for histology as previously described (Nutter et al., 2014; Ottewell et al., 2014a).
Tumor cells, serum, and bone were subsequently resected for downstream analysis.
Whole blood was centrifuged at 10,000 g for 5 minutes and the serum removed for ELISA assays. The cell pellet was re-suspended in 5 ml of FSM lysis solution (Sigma-Aldrich, Pool, UK) to lyse red blood cells. Remaining cells were re-pelleted, washed 3x in PBS and re-suspended in a solution of PBS/10% FCS. Samples from 10 mice per group were pooled prior to isolation of TdTomato positive tumor cells using a MoFlow High performance cell sorter (Beckman Coulter, Cambridge UK) with the […] laser line from a Coherent I-90C tenable argon ion (Coherent, Santa Clara, CA). TdTomato fluorescence was detected by a 555LP dichroic long pass and a 580/30 nm band pass filter. Acquisition and analysis of cells was performed using Summit 4.3 software. Following sorting cells were immediately placed in RNA protect cell reagent (Ambion, Paisley, Renfrew, UK) and stored at -80° C. before RNA extraction.

[1] = murine model of spontaneous human breast cancer metastasis to human bone

Substance: canakinumab: high-affinity, fully human monoclonal antibody of the IgG1/k to interleukin-1β; INN number 8836
- mice with metastasis detected in human bone implants (1 mg/kg IL-1Ra daily or 10 mg/kg canakinumab s.c. every 14 days from day 7, control 7 out of 10): 1 out of 10
- bone metastasis, photons/sec mean values (Placebo 3.60E+06): 6.01E+04 photons/sec
- size of bone metastases (compared with control group): smaller than those detected in the control group
- bone turnover and neovascularisation (mouse, in vivo): reduced bone turnover and neovascularisation
- bone metastasis [1]: significantly reduced bone metastasis
- primary tumour growth [1]: increasing primary tumour growth
- tumor cells counted in whole blood (placebo 108 tumor cells/ml): 3 tumor cells/ml
